Source: patent US11384055B2 (BIOMARIN PHARMACEUTICAL INC., priority 2017, dated 2022)

Target: T1, Human GO (Homo sapiens, UniProt Q9UJM8)
T1 construct: purchased Novus Biologicals NBP1-72412
T1 sequence (Q9UJM8 1-370): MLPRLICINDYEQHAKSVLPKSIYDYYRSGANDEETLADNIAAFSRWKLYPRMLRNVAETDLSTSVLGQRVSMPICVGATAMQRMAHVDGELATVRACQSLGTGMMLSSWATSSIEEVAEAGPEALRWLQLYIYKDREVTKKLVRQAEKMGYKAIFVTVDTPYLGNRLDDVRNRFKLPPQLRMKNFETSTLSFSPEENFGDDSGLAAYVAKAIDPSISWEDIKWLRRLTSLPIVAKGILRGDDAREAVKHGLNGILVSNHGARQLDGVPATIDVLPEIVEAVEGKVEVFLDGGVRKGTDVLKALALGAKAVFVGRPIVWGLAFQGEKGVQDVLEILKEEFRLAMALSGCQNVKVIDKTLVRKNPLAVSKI
Assay: GO enzymatic assay (coupled fluorescence/HRP assay, glycolate substrate)
Type: biochemical
Conditions: Table 2; read-out: Range (range of IC50 values calculated from the enzymatic assays)
Method in brief: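 Coupled HRP/fluorescence read-out of glycolate oxidation by human GO in 50 mM potassium phosphate buffer (pH 7). Inhibitors added across a concentration range.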

SMILES	IC50
O=C(O)c1[nH]nnc1SC1CCC2(CCCC2)CC1 [Compound 311, 4-(spiro[4.5]decan-8-ylthio)-1H-1,2,3-triazole-5-carboxylic acid 2,2,2-trifluoroacetate]	< 100 nM
O=C(O)c1[nH]nnc1CSc1ccc(-c2ccc(OC(F)(F)F)cc2)cc1 [Compound 312, 4-(((4′-(trifluoromethoxy)-[1,1′-biphenyl]-4-yl)thio)methyl)-1H-1,2,3-triazole-5-carboxylic acid 2,2,2-trifluoroacetate]	< 100 nM
CCC(=O)OCOC(=O)c1[nH]nnc1Sc1ccc(-c2ccc(N3CCCCC3)cc2)cc1 [Compound 313, (propionyloxy)methyl 4-((4′-(piperidin-1-yl)-[1,1′-biphenyl]-4-yl)thio)-1H-1,2,3-triazole-5-carboxylate 2,2,2-trifluoroacetate]	1000 to 10000 nM
O=C(O)c1[nH]nnc1SC1CCC(c2ccc(OC(F)(F)F)cc2)C1 (centres unmarked) [Compound 314, 4-((3-(4-(trifluoromethoxy)phenyl)cyclopentyl)thio)-1H-1,2,3-triazole-5-carboxylic acid]	< 100 nM
O=C(O)c1[nH]nnc1SC1CCC2(CCCCC2)CC1 [Compound 315, 4-(spiro[5.5]undecan-3-ylthio)-1H-1,2,3-triazole-5-carboxylic acid 2,2,2-trifluoroacetate]	< 100 nM
O=C(O)c1[nH]nnc1SCc1ccc(N2CCCCC2)c2ccccc12 [Compound 316, 4-(((4-(piperidin-1-yl)naphthalen-1-yl)methyl)thio)-1H-1,2,3-triazole-5-carboxylic acid 2,2,2-trifluoroacetate]	< 100 nM
O=C(OCOC(=O)C1CCCCC1)c1[nH]nnc1Sc1ccc(-c2ccc(N3CCCCC3)cc2)cc1 [Compound 317, ((cyclohexanecarbonyl)oxy)methyl 4-((4′-(piperidin-1-yl)-[1,1′-biphenyl]-4-yl)thio)-1H-1,2,3-triazole-5-carboxylate 2,2,2-trifluoroacetate]	> 10000 nM
O=C(O)c1[nH]nnc1Sc1ccc(Cl)c(OC(F)(F)F)c1 [Compound 318, 4-((4-chloro-3-(trifluoromethoxy)phenyl)thio)-1H-1,2,3-triazole-5-carboxylic acid]	< 100 nM
O=C(O)c1[nH]nnc1Sc1ccc(-c2ccc(N3CCC(F)(F)CC3)cc2)cc1 [Compound 319, 4-((4′-(4,4-difluoropiperidin-1-yl)-[1,1′-biphenyl]-4-yl)thio)-1H-1,2,3-triazole-5-carboxylic acid 2,2,2-trifluoroacetate]	< 100 nM
O=C(O)c1[nH]nnc1SC1Cc2ccc(OC(F)(F)F)cc2C1 (centres unmarked) [Compound 320, 4-((5-(trifluoromethoxy)-2,3-dihydro-1H-inden-2-yl)thio)-1H-1,2,3-triazole-5-carboxylic acid]	< 100 nM
O=C(O)c1[nH]nnc1Sc1ccc(-c2ccc(OC(F)(F)F)cn2)cc1 [Compound 321, 4-((4-(5-(trifluoromethoxy)pyridin-2-yl)phenyl)thio)-1H-1,2,3-triazole-5-carboxylic acid 2,2,2-trifluoroacetate]	< 100 nM
O=C(O)c1[nH]nnc1CSc1ccc(-c2ccc(Cl)c(Cl)c2)cc1 [Compound 322, 4-(((3′,4′-dichloro-[1,1′-biphenyl]-4-yl)thio)methyl)-1H-1,2,3-triazole-5-carboxylic acid 2,2,2-trifluoroacetate]	< 100 nM
O=C(O)c1[nH]nnc1SC1CCN(c2ccc(Cl)c(Cl)c2)CC1 [Compound 323, 4-((1-(3,4-dichlorophenyl)piperidin-4-yl)thio)-1H-1,2,3-triazole-5-carboxylic acid 2,2,2-trifluoroacetate]	< 100 nM
O=C(O)c1[nH]nnc1SC1CCN(c2ccc(C(F)(F)F)cc2)CC1 [Compound 324]	< 100 nM
O=C(O)c1[nH]nnc1SC1CCN(c2cc(Cl)cc(Cl)c2)CC1 [Compound 325, 4-((1-(3,5-dichlorophenyl)piperidin-4-yl)thio)-1H-1,2,3-triazole-5-carboxylic acid 2,2,2-trifluoroacetate]	< 100 nM
O=C(O)c1[nH]nnc1SC1CCC(c2cccc(OC(F)(F)F)c2)CC1 (centres unmarked) [Compound 326, 4-((4-(3-(trifluoromethoxy)phenyl)cyclohexyl)thio)-1H-1,2,3-triazole-5-carboxylic acid]	< 100 nM
O=C(O)c1[nH]nnc1SC1CCC(c2cccc(C(F)(F)F)c2)CC1 (centres unmarked) [Compound 327, 4-((4-(3-(trifluoromethyl)phenyl)cyclohexyl)thio)-1H-1,2,3-triazole-5-carboxylic acid]	< 100 nM
O=C(O)c1[nH]nnc1CSc1ccc(-c2cc(Cl)cc(Cl)c2)cc1 [Compound 328, 4-(((3′,5′-dichloro-[1,1′-biphenyl]-4-yl)thio)methyl)-1H-1,2,3-triazole-5-carboxylic acid]	< 100 nM

SMILES	IC50
O=C(O)c1[nH]nnc1CSc1ccc(-c2ccc(OC(F)(F)F)c(Cl)c2)cc1 [Compound 329, 4-(((3′-chloro-4′-(trifluoromethoxy)-[1,1′-biphenyl]-4-yl)thio)methyl)-1H-1,2,3-triazole-5-carboxylic acid]	< 100 nM
O=C(O)c1[nH]nnc1SC1CCN(c2cc(Cl)ccc2Cl)CC1 [Compound 330, 4-((1-(2,5-dichlorophenyl)piperidin-4-yl)thio)-1H-1,2,3-triazole-5-carboxylic acid]	< 100 nM
O=C(O)c1[nH]nnc1S[C@H]1CC[C@@H](c2cc(Cl)cc(Cl)c2)CC1 [Compound 331, 4-(((cis)-4-(3,5-dichlorophenyl)cyclohexyl)thio)-1H-1,2,3-triazole-5-carboxylic acid]	< 100 nM
O=C(O)c1[nH]nnc1S[C@H]1CC[C@@H](c2ccc(C(F)(F)F)cc2)CC1 [Compound 332, 4-(((cis)-4-(4-(trifluoromethyl)phenyl)cyclohexyl)thio)-1H-1,2,3-triazole-5-carboxylic acid]	< 100 nM
CN(Cc1nn[nH]c1C(=O)O)c1ccc(-c2ccc(OC(F)(F)F)cc2)cc1 [Compound 333, 4-((methyl(4′-(trifluoromethoxy)-[1,1′-biphenyl]-4-yl)amino)methyl)-1H-1,2,3-triazole-5-carboxylic acid 2,2,2-trifluoroacetate]	< 100 nM
O=C(O)c1[nH]nnc1-c1cc(OCC2CC2)cc(C(F)(F)F)c1 [Compound 334, 4-(3-(cyclopropylmethoxy)-5-(trifluoromethyl)phenyl)-1H-1,2,3-triazole-5-carboxylic acid]	< 100 nM
O=C(O)c1[nH]nnc1[S+]([O-])c1ccc(Cl)c(OCC2CCCCC2)c1 (centres unmarked) [Compound 335, 4-((4-chloro-3-(cyclohexylmethoxy)phenyl)sulfinyl)-1H-1,2,3-triazole-5-carboxylic acid]	1000 to 10000 nM
O=C(O)c1[nH]nnc1Sc1ccc(Cl)c(OCC2CCCCC2)c1 [Compound 336, 4-((4-chloro-3-(cyclohexylmethoxy)phenyl)thio)-1H-1,2,3-triazole-5-carboxylic acid]	< 100 nM
O=C(O)c1[nH]nnc1S[C@H]1CC[C@@H](c2cc(Cl)cc(OC(F)(F)F)c2)CC1 [Compound 337, 4-(((cis)-4-(3-chloro-5-(trifluoromethoxy)phenyl)cyclohexyl)thio)-1H-1,2,3-triazole-5-carboxylic acid]	< 100 nM
O=C(O)c1[nH]nnc1SC1CCN(c2cc(Cl)cc(OC(F)(F)F)c2)CC1 [Compound 338, 4-((1-(3-chloro-5-(trifluoromethoxy)phenyl)piperidin-4-yl)thio)-1H-1,2,3-triazole-5-carboxylic acid]	< 100 nM
O=C(O)c1[nH]nnc1Sc1ccc(N2CCC(F)(F)CC2)cc1 [Compound 339, 4-((4-(4,4-difluoropiperidin-1-yl)phenyl)thio)-1H-1,2,3-triazole-5-carboxylic acid 2,2,2-trifluoroacetate]	< 100 nM
O=C(O)c1[nH]nnc1SC1CCC(c2cccc(N3CCCCC3)c2)CC1 (centres unmarked) [Compound 340, 4-((4-(3-(piperidin-1-yl)phenyl)cyclohexyl)thio)-1H-1,2,3-triazole-5-carboxylic acid 2,2,2-trifluoroacetate]	< 100 nM
CN1CCN(c2ccc([C@H]3CC[C@@H](Sc4nn[nH]c4C(=O)O)CC3)cc2)CC1 [Compound 341, 4-(((cis)4-(4-(4-methylpiperazin-1-yl)phenyl)cyclohexyl)thio)-1H-1,2,3-triazole-5-carboxylic acid 2,2,2-trifluoroacetate]	< 100 nM
O=C(O)c1[nH]nnc1Sc1ccc(-c2ccc(N3CCCCC3)cc2)c(Cl)c1 [Compound 342, 4-((2-chloro-4′-(piperidin-1-yl)-[1,1′-biphenyl]-4-yl)thio)-1H-1,2,3-triazole-5-carboxylic acid 2,2,2-trifluoroacetate]	< 100 nM
O=C(O)c1[nH]nnc1Sc1cc(OCC2CCCC2)ccc1Cl [Compound 343, 4-((2-chloro-5-(cyclopentylmethoxy)phenyl)thio)-1H-1,2,3-triazole-5-carboxylic acid]	< 100 nM
N#Cc1ccc(N2CCC(Sc3nn[nH]c3C(=O)O)CC2)cc1 [Compound 344, 4-((1-(4-cyanophenyl)piperidin-4-yl)thio)-1H-1,2,3-triazole-5-carboxylic acid 2,2,2-trifluoroacetate]	< 100 nM
O=C(O)c1[nH]nnc1S[C@H]1CC[C@@H](c2ccc(Cl)c(Cl)c2)CC1 [Compound 345, 4-(((cis)-4-(3,4-dichlorophenyl)cyclohexyl)thio)-1H-1,2,3-triazole-5-carboxylic acid 2,2,2-trifluoroacetate]	< 100 nM
